Data: PubChem BioAssay (NCI)
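Each compound was tested at five concentrations against cells in 96-well plates for 48 hours. At the TGI there is no net growth.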

How the values were obtained:
Experiment in all cases: growth of human tumour cells (NCI), 48 h
786-0 renal = test system: 786-0 renal
A549 NSCLC = test system: A549 NSCLC
ACHN renal = test system: ACHN renal
HOP-92 NSCLC = test system: HOP-92 NSCLC
HS 578T breast = test system: HS 578T breast
MALME-3M melanoma = test system: MALME-3M melanoma
MDA-N = test system: MDA-N
NCI-H522 lung = test system: NCI-H522 lung
RPMI-8226 leukemia = test system: RPMI-8226 leukemia
SF-268 CNS = test system: SF-268 CNS
SF-539 CNS = test system: SF-539 CNS
SNB-19 CNS = test system: SNB-19 CNS
T-47D breast = test system: T-47D breast
M14 melanoma = test system: M14 melanoma
SK-MEL-2 melanoma = test system: SK-MEL-2 melanoma

Row | SMILES | TGI (786-0 renal) | TGI (A549 NSCLC) | TGI (ACHN renal) | TGI (HOP-92 NSCLC) | TGI (HS 578T breast) | TGI (MALME-3M melanoma) | TGI (MDA-N) | TGI (NCI-H522 lung) | TGI (RPMI-8226 leukemia) | TGI (SF-268 CNS) | TGI (SF-539 CNS) | TGI (SNB-19 CNS) | TGI (T-47D breast) | TGI (M14 melanoma) | TGI (SK-MEL-2 melanoma)
1 | O=c1c2cc([N+](=O)[O-])ccc2n2n1Cc1ccccc1C2 | > 100 µM | > 100 µM | > 100 µM | > 100 µM | > 100 µM | > 100 µM | > 100 µM | > 100 µM | > 100 µM | > 100 µM | > 100 µM | > 100 µM | > 100 µM |  | 
2 | Cc1nn(-c2ccccc2)c2[nH]c(=S)cnc12 | > 100 µM | > 100 µM |  | > 100 µM | > 100 µM | > 100 µM | > 100 µM | > 100 µM | > 100 µM | > 100 µM | > 100 µM | > 100 µM | > 100 µM | > 100 µM | > 100 µM
3 | N#Cc1sc2c(c1OC(=O)c1cccs1)c(=O)n(-c1ccccc1)c(=S)n2-c1ccccc1 | 90.6 µM | > 100 µM |  |  | 43.6 µM | 40.7 µM | 68.5 µM | 34.3 µM | 49.6 µM | 86 µM | 49.6 µM | > 100 µM | 34.1 µM | 38.2 µM | 51 µM
4 | N#CC(Nc1ccccc1)c1ccc(C(C#N)Nc2ccccc2)cc1 (stereo unspecified) | > 100 µM | > 100 µM | > 100 µM | > 100 µM | > 100 µM | > 100 µM | > 100 µM | > 100 µM |  | > 100 µM | 69 µM | > 100 µM | > 100 µM | > 100 µM | > 100 µM
5 | O=C(O)c1ccc2c(c1)CC1(C2)Cc2ccccc2C1=O (stereo unspecified) | > 100 µM | > 100 µM | > 100 µM | > 100 µM | > 100 µM | > 100 µM | > 100 µM | > 100 µM | > 100 µM | > 100 µM | > 100 µM | > 100 µM | > 100 µM | > 100 µM | > 100 µM
6 | CCOP(=O)(OCC)c1ccc(=O)[nH]c1-c1cccs1 | > 100 µM | > 100 µM | > 100 µM | > 100 µM | > 100 µM | > 100 µM | > 100 µM | > 100 µM | > 100 µM | > 100 µM | > 100 µM | > 100 µM | > 100 µM | > 100 µM | > 100 µM
7 | Fc1ccccc1-c1nn2c(C34CC5CC(CC(C5)C3)C4)nnc2s1 | > 100 µM | > 100 µM | > 100 µM | > 100 µM | > 100 µM | > 100 µM | > 100 µM | > 100 µM | > 100 µM | > 100 µM | > 100 µM | > 100 µM | > 100 µM | > 100 µM | > 100 µM
8 | O=c1[nH]nc(Cc2ccccc2)n1/N=C/c1ccccc1Cl | > 100 µM | > 100 µM | > 100 µM | > 100 µM | > 100 µM | > 100 µM | > 100 µM | > 100 µM | > 100 µM | > 100 µM | > 100 µM | > 100 µM | > 100 µM |  | > 100 µM
9 | C[C@H]1C[C@H](C)c2ccccc2N(C)C1=Nc1ccccc1 | 64 µM | > 100 µM | > 100 µM | 40.1 µM | > 100 µM | 71.4 µM | 68.7 µM |  | > 100 µM | > 100 µM | > 100 µM | > 100 µM | > 100 µM | 56.2 µM | 44.2 µM
10 | C=C1CC(C)(COc2ccc3ccc(=O)oc3c2)OC1=O (stereo unspecified) | 7.42 µM | 30.5 µM | 11.2 µM | 4.4 µM | 24.3 µM | 6.31 µM | 13.8 µM | 2.84 µM | 4.7 µM | 33.5 µM | 10.2 µM | 51.9 µM | 17.3 µM | 4.97 µM | 8.8 µM
11 | CN(C)CCCCN1c2ccccc2Sc2cc(N=[N+]=[N-])ccc21 | 3.08 µM | 3.37 µM | 4.5 µM | 10.5 µM | 9.83 µM | 3.34 µM | 3.1 µM | 3.05 µM | 6.06 µM | 4.62 µM | 3.4 µM | 19.9 µM | 4.86 µM | 3.08 µM | 3.4 µM
12 | COC(=O)c1ccccc1/C=C1\Cc2cc(C)cc(C)c2C1=O | > 100 µM | > 100 µM | > 100 µM |  | > 100 µM | > 100 µM | > 100 µM | > 100 µM | > 100 µM | > 100 µM | > 100 µM | > 100 µM | > 100 µM |  | > 100 µM
13 | Cn1c(NS(=O)(=O)c2ccccc2)nc2ccccc21 | > 100 µM | > 100 µM | > 100 µM | > 100 µM | > 100 µM | > 100 µM | > 100 µM | > 100 µM | > 100 µM | > 100 µM | > 100 µM | > 100 µM | > 100 µM | > 100 µM | 
14 | Cc1ccc(S(=O)(=O)NC2C(=O)c3ccccc3C(=O)C2n2cnc3ccccc32)cc1 (stereo unspecified) | > 100 µM | > 100 µM | > 100 µM | > 100 µM | > 100 µM | 1.81 µM | 45.5 µM |  | > 100 µM | > 100 µM | 62.6 µM | 89.7 µM | > 100 µM | > 100 µM | 51.7 µM
15 | COc1ccc(C(c2c[nH]c3ccc(Br)cc23)c2c[nH]c3ccc(Br)cc23)cc1 | 1.07 µM | 1.22 µM | 0.845 µM | 2.07 µM | 3.81 µM | 2.23 µM | 0.552 µM | 0.397 µM | 0.543 µM | 0.631 µM | 2.06 µM | 1.76 µM | 2.67 µM | 0.7 µM | 1.22 µM
16 | NC(=O)C(c1ccccc1)N1OC2C(=O)N(c3cccc4ccccc34)C(=O)C2C1c1c2ccccc2c(Cl)c2ccccc12 (stereo unspecified) | 21.4 µM | > 50 µM | 20.2 µM | 32 µM | > 50 µM | 35.7 µM | 7.88 µM | 44.3 µM |  | 25.1 µM | 12.9 µM | 18.9 µM | 31.7 µM | 15.8 µM | 19.6 µM
17 | O=C(O)c1ccc(Nc2nc3ccccc3nc2-c2cccs2)cc1 | > 100 µM | > 100 µM | > 100 µM | > 100 µM | > 100 µM | > 100 µM | > 100 µM | > 100 µM | > 100 µM | > 100 µM | > 100 µM |  | > 100 µM |  | 
18 | COc1ccc2c(c1)CCc1[nH]c3ccccc3c1CCCC2 | > 10 µM | > 10 µM | > 10 µM | > 10 µM | > 10 µM | > 10 µM | > 10 µM | > 10 µM | > 10 µM | > 10 µM | > 10 µM | > 10 µM | > 10 µM | > 10 µM | 
19 | COc1cc(C2c3cc4c(cc3OC(Nc3ccccc3)C2C)OCO4)cc(OC)c1OC (stereo unspecified) | > 100 µM | > 100 µM | > 61.4 µM |  | > 78.5 µM | > 100 µM | 0.784 µM | 2.04 µM | > 100 µM | > 100 µM | 0.697 µM | > 100 µM | > 100 µM | > 86.5 µM | > 100 µM
20 | O=[N+]([O-])c1ccc2[nH]ncc2c1Cl | > 100 µM | > 100 µM | 51.5 µM | > 100 µM | 59.3 µM |  | 48.1 µM | 16.5 µM | 61.2 µM |  | > 100 µM | > 100 µM | 44.4 µM |  | 40.4 µM
21 | C=C(Br)CN(C(C)=O)C1CCCCC1 | > 100 µM | > 100 µM | > 100 µM |  | > 100 µM | > 100 µM | > 100 µM | > 100 µM | > 100 µM | > 100 µM | > 100 µM | > 100 µM | > 100 µM | > 100 µM | > 100 µM
22 | O=C(C1C(c2ccccc2)N1C(c1ccccc1)c1ccccc1)C1C(c2ccccc2)N1C(c1ccccc1)c1ccccc1 (stereo unspecified) | 48.2 µM | > 100 µM |  |  | 46.3 µM |  | > 100 µM | 23.7 µM | 10.9 µM | 67.5 µM | 43.4 µM | > 100 µM | > 100 µM | > 100 µM | 
23 | COc1cc(Nc2cnc3cc(F)c(F)cc3n2)cc(OC)c1 | > 100 µM | > 100 µM | > 100 µM | > 100 µM | > 100 µM | > 100 µM | > 100 µM | 42.4 µM |  | > 100 µM | > 100 µM | > 100 µM | > 100 µM | > 100 µM | > 100 µM
24 | O=C(CCc1ccc(O)cc1)NCCc1cccc(OCc2ccccc2)c1 | > 100 µM | > 100 µM | > 100 µM | 70.9 µM | > 100 µM | 79.6 µM | 68.4 µM | 99.3 µM |  | > 100 µM | 31 µM | > 100 µM | 67.7 µM | 36.2 µM | 39.1 µM
25 | Cc1cccc(C)c1NC(=S)NC=C(C(N)=O)C(N)=O | > 100 µM | > 100 µM | > 100 µM | > 100 µM | > 100 µM |  | > 100 µM | > 100 µM | > 100 µM | > 100 µM | > 100 µM | > 100 µM | > 100 µM | > 100 µM | > 100 µM
